Measured values as given in patent US20220241402A1, “COMBINATION OF HEPATITIS B VIRUS (HBV) VACCINES AND QUINAZOLINE DERIVATIVES” (Janssen Sciences Ireland Unlimited Company, priority 2019, published 2022).

How the values were obtained:
human TLR7 = molecular target: T1, human TLR7 (Homo sapiens, UniProt Q9NYK1); test: TLR7 cellular NFκB-luc reporter assay; type: cell-based; set-up: unit not given here; details: lowest effective concentration; HEK293 cells transiently transfected with TLR7 and NFκB-luc, 6 h incubation
T1 construct: expressed in transfected cells; host or cells: HEK293
T1 sequence (Q9NYK1 27-1049): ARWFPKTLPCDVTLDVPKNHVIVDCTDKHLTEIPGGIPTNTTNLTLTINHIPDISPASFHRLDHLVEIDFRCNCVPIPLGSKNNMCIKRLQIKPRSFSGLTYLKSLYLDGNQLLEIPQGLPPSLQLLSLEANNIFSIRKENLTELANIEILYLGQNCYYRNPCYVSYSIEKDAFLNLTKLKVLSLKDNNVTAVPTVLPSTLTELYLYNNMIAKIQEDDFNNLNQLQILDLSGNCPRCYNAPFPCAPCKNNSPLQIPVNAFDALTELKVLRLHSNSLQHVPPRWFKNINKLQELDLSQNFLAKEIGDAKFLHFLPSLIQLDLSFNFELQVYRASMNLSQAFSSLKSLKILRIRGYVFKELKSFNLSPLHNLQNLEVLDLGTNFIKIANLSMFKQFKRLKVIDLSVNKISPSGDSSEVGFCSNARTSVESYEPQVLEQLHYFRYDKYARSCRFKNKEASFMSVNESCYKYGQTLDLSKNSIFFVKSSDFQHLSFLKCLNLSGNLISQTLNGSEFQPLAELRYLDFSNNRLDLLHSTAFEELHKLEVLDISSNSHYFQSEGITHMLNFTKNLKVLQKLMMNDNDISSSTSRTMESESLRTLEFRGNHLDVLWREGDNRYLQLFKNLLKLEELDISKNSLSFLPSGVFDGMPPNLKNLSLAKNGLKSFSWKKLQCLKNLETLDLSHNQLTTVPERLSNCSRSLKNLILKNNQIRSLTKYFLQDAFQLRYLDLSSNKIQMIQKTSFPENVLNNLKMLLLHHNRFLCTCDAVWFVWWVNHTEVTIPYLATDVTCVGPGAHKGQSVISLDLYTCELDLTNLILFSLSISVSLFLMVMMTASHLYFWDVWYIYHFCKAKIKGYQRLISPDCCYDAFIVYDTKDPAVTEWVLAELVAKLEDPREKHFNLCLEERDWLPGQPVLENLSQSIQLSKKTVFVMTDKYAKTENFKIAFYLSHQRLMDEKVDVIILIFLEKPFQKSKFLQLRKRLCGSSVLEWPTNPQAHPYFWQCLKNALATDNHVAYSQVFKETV
Description: (§1) The ability of compounds to activate human TLR7 and/or TLR8 was assessed in a cellular reporter assay using HEK293 cells transiently transfected with a TLR7 or TLR8 expression vector and NFκB-luc reporter construct. In one instance, the TLR expression construct expresses the respective wild type sequence or a mutant sequence comprising a deletion in the second leucine-rich repeat of the TLR.
(§2) HEK293 cells were grown in culture medium (DMEM supplemented with 10% FCS and 2 mM Glutamine). For transfection of cells in 10 cm dishes, cells were detached with Trypsin-EDTA, transfected with a mix of CMV-TLR7 or TLR8 plasmid (750 ng), NFκB-luc plasmid (375 ng) and a transfection reagent and incubated 24 h at 37° C. in a humidified 5% CO2 atmosphere. Transfected cells were then detached with Trypsin-EDTA, washed in PBS and re-suspended in medium to a density of 1.67×10^5 cells/mL. Thirty microliters of cells were then dispensed into each well in 384-well plates, where 10 μL of compound in 4% DMSO was already present. Following 6 h incubation at 37° C., 5% CO2, the luciferase activity was determined by adding 15 μl of STEADY LITE PLUS substrate (PERKIN ELMER) to each well and readout performed on a VIEWLUX ULTRAHTS microplate imager (PERKIN ELMER). Dose response curves were generated from measurements performed in quadruplicates. Lowest effective concentrations (LEC) values, defined as the concentration that induces an effect which is at least two-fold above the standard deviation of the assay, were determined for each compound.

human TLR8 = molecular target: T2, human TLR8 (Homo sapiens, UniProt Q9NR97); test: TLR8 cellular NFκB-luc reporter assay; type: cell-based; set-up: unit not given here; details: lowest effective concentration; HEK293 cells transiently transfected with TLR8 and NFκB-luc, 6 h incubation
T2 construct: expressed in transfected cells; host or cells: HEK293
T2 sequence (Q9NR97 27-1041): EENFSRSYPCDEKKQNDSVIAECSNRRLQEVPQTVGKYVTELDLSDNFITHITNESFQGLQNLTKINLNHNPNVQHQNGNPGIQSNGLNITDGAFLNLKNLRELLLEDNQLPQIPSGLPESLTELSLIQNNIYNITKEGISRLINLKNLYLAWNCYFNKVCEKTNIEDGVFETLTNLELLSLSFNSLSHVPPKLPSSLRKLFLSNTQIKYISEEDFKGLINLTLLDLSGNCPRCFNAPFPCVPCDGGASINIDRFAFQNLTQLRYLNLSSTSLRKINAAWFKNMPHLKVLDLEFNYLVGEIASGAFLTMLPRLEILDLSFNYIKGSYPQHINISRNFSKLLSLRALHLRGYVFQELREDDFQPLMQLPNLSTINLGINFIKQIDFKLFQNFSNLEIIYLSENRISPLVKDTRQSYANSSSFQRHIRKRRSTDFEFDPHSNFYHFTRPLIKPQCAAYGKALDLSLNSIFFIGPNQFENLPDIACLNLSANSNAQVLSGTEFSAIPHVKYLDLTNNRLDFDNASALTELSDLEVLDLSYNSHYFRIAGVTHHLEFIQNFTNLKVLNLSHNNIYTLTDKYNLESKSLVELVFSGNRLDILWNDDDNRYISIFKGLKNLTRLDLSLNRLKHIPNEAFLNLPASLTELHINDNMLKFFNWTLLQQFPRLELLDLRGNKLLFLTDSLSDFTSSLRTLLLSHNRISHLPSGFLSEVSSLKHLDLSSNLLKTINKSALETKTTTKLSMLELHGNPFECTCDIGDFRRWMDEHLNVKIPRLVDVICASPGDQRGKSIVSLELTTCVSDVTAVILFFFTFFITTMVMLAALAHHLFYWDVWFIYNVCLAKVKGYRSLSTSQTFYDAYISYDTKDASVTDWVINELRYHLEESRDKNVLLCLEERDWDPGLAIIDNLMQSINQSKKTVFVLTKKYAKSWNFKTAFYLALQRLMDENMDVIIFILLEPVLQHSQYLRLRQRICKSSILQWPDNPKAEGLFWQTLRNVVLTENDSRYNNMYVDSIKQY
Description: as §1, §2

hTLR7-wt (LEC) (human TLR7)	hTLR8-wt (LEC) (human TLR8)	Structure (SMILES)
>100	0.35	CCCC[C@H](CO)Nc1nc(N)nc2cccc(C3CC3)c12 [Compound 99, (R)-2-((2-amino-5-cyclopropylquinazolin-4-yl)amino)hexan-1-ol]
27.7	0.07	CCCC[C@H](CO)Nc1nc(N)nc2cccc(F)c12 [Compound 100, (R)-2-((2-amino-5-fluoroquinazolin-4-yl)amino)hexan-1-ol]
>100	0.66	CCCC[C@H](CO)Nc1nc(N)nc2cccc(C(F)(F)F)c12 [Compound 101, (R)-2-((2-amino-5-(trifluoromethyl)quinazolin-4-yl)amino)hexan-1-ol]
>100	0.14	CCCC[C@H](CO)Nc1nc(N)nc2cc(C#N)ccc12 [Compound 102, (R)-2-amino-4-((1-hydroxyhexan-2-yl)amino)quinazoline-7-carbonitrile]
>25	0.38	CCCC[C@H](CO)Nc1nc(N)nc2cc(-c3nnco3)ccc12 [Compound 103, (R)-2-((2-amino-7-(1,3,4-oxadiazol-2-yl)quinazolin-4-yl)amino)hexan-1-ol]
>25	5.75	CCC[C@H](CO)Nc1nc(N)nc2c(C)cccc12 [Compound 104, (R)-2-((2-amino-8-methylquinazolin-4-yl)amino)pentan-1-ol]
>25	0.46	CCCC[C@H](CO)Nc1nc(N)nc2c(C)cccc12 [Compound 105, (R)-2-((2-amino-8-methylquinazolin-4-yl)amino)hexan-1-ol]
>25	2.72	CCCC[C@H](CO)Nc1nc(N)nc2c(Cl)cccc12 [Compound 106, (R)-2-((2-amino-8-chloroquinazolin-4-yl)amino)hexan-1-ol]
>25	0.11	CCCC[C@H](CO)Nc1nc(N)nc2c(F)cccc12 [Compound 107, (R)-2-((2-amino-8-fluoroquinazolin-4-yl)amino)hexan-1-ol]
>25	3.27	CCC[C@H](CO)Nc1nc(N)nc2c(F)cccc12 [Compound 108, (R)-2-((2-amino-8-fluoroquinazolin-4-yl)amino)pentan-1-ol]
>25	0.64	CCCC[C@H](COC(=O)C(C)C)Nc1nc(N)nc2c(C)cccc12 [Compound 109, (R)-2-((2-amino-8-methylquinazolin-4-yl)amino)hexyl isobutyrate]
–	0.04	CCCC[C@H](CO)Nc1nc(N)nc2cc(F)ccc12 [Compound 111, (R)-2-((2-amino-7-fluoroquinazolin-4-yl)amino)hexan-1-ol]
>100	–	CCCC[C@H](CO)Nc1nc(N)nc2cccc(Cl)c12 [Compound 113, (R)-2-((2-amino-5-chloroquinazolin-4-yl)amino)hexan-1-ol]
>100	–	CCCC[C@H](CO)Nc1nc(N)nc2cccc(C)c12 [Compound 114, (R)-2-((2-amino-5-methylquinazolin-4-yl)amino)hexan-1-ol]
>50	3.74	CCCC[C@H](CO)Nc1nc(N)nc2c(OC)cccc12 [Compound 115, (R)-2-((2-amino-8-methoxyquinazolin-4-yl)amino)hexan-1-ol]
>100	0.57	CCCC[C@H](CO)Nc1nc(N)nc2cc(C(=O)OC)ccc12 [Compound 116, Methyl (R)-2-amino-4-((1-hydroxyhexan-2-yl)amino)quinazoline-7-carboxylate]
>100	0.41	CCCC[C@H](CO)Nc1nc(N)nc2c(F)c(F)ccc12 [Compound 117, (R)-2-((2-amino-7,8-difluoroquinazolin-4-yl)amino)hexan-1-ol]
>50	0.7	CSCC[C@H](CO)Nc1nc(N)nc2cccc(F)c12 [Compound 118, (R)-2-((2-amino-5-fluoroquinazolin-4-yl)amino)-4-(methylthio)butan-1-ol]
1.71	0.09	CC[C@H](C)[C@H](CO)Nc1nc(N)nc2cccc(F)c12 [Compound 119, (2R,3S)-2-((2-amino-5-fluoroquinazolin-4-yl)amino)-3-methylpentan-1-ol]
